In patent US20110143948A1, “MOLECULAR SIGNATURES AND BIOMARKERS ASSOCIATED WITH MELANOMA AND METHODS OF USE THEREOF” (priority 2008, published 2011):

Test system: ncRNAs (SEQ ID NO 28-89)
Test: ncRNA arrays of melanocytes, keratinocytes, normal skin, melanoma cell lines and patient samples
Design: species or system human
Settings: for ncRNA array expression, patient 2: melanoma patient 2 sample compared to normal skin; for ncRNA array expression, patient 3: melanoma patient 3 sample compared to normal skin; for ncRNA array expression, patient 4: melanoma patient 4 sample compared to normal skin; for ncRNA array expression, patient 5: melanoma patient 5 sample compared to normal skin; for ncRNA array expression, patient 6: melanoma patient 6 sample compared to normal skin; for ncRNA array expression, patient 7: melanoma patient 7 sample compared to normal skin; for ncRNA array expression, patient 8: melanoma patient 8 sample compared to normal skin; for ncRNA array expression, patient 9: melanoma patient 9 sample compared to normal skin; for ncRNA array expression, patient 10: melanoma patient 10 sample compared to normal skin; for ncRNA array expression, patient 19: melanoma patient 19 sample compared to normal skin; for ncRNA array expression, patient 20: melanoma patient 20 sample compared to normal skin; for ncRNA array expression, patient 21: melanoma patient 21 sample compared to normal skin; for ncRNA array expression, patient 22: melanoma patient 22 sample compared to normal skin; for ncRNA array expression, patient 23: melanoma patient 23 sample compared to normal skin; for ncRNA array expression, patient 24: melanoma patient 24 sample compared to normal skin; for ncRNA array expression, patient 25: melanoma patient 25 sample compared to normal skin; for ncRNA array expression, patient 26: melanoma patient 26 sample compared to normal skin; for ncRNA array expression, patient 27: melanoma patient 27 sample compared to normal skin; for ncRNA array expression, patient 28: melanoma patient 28 sample compared to normal skin; for ncRNA array expression, patient 29: melanoma patient 29 sample compared to normal skin; for ncRNA array expression, patient 30: melanoma patient 30 sample compared to normal skin
Summary of the method: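 Total RNA from melanocytes, keratinocytes, normal human skin, melanoma cell lines and melanoma patient samples was profiled on an array of >10,000 putative (>200 nt) human and mouse ncRNAs plus RefSeq mRNA probes. Expression was compared with melanocytes or normal skin, keratinocyte signatures were subtracted, and hits were validated by qRT-PCR and Northern blot.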

Row | Substance | ncRNA array expression, patient 2 | ncRNA array expression, patient 3 | ncRNA array expression, patient 4 | ncRNA array expression, patient 5 | ncRNA array expression, patient 6 | ncRNA array expression, patient 7 | ncRNA array expression, patient 8 | ncRNA array expression, patient 9 | ncRNA array expression, patient 10 | ncRNA array expression, patient 19 | ncRNA array expression, patient 20 | ncRNA array expression, patient 21 | ncRNA array expression, patient 22 | ncRNA array expression, patient 23 | ncRNA array expression, patient 24 | ncRNA array expression, patient 25 | ncRNA array expression, patient 26 | ncRNA array expression, patient 27 | ncRNA array expression, patient 28 | ncRNA array expression, patient 29 | also measured
1 | SEQ ID NO 54 (TTTTTTTTCTTGTCCTATTACAACATTTTATAACCTTATGAATCAATGGATACTTTTATT; listed as DNA, chemistry not given here; listed as Homo sapiens) | 0.357 | 2.627 | 3.179 | 0.2547 | 0.568 | 1.3 | 1.144 | −0.1401 | 0.4363 | 3.034 | 1.876 | 1.299 | −0.2466 | 0.7631 | 2.124 | 3.287 | 2.689 | 4.17 | 1.501 | −0.1851 | ncRNA array expression, patient 30: −0.1125
2 | SEQ ID NO 34 (TTTTCTCTGCTTATTACCCTCCCTGTTTCCTCCTGGGCTGCCAACAACATATTATATTAC; listed as DNA, chemistry not given here; listed as Homo sapiens) | 2.375 | 2.833 | 2.701 | 2.722 | 2.606 | 3.005 | 2.354 | 1.958 | −1.787 | 2.243 | 3.044 | 2.382 | 2.727 | 2.643 | 1.817 | 2.013 | 1.687 | 2.945 | 2.485 | 2.129 | ncRNA array expression, patient 30: −0.1242
3 | SEQ ID NO 45 (ATTTAGAGAACATTTAAATCTGTAAGGAAGAAAATAATAACGACTCACAATTACATCATT; listed as DNA, chemistry not given here; listed as Homo sapiens) | −1.688 | −1.56 | −1.5912 | −1.519 | −0.7528 | −0.8782 | −2.042 | −1.8261 | 1.065 | −0.8583 | −1.797 | −1.759 | −1.25 | 0.2281 | −1.588 | −2.096 | −2.174 | −1.86 | −2.069 | −1.422 | ncRNA array expression, patient 30: 0.8792
4 | SEQ ID NO 31 (TTGCTTTTGTATTTGTAATTTTATGACATTTCGAAGTTTCTGTGTCTTAACTCTTTTTAA; listed as DNA, chemistry not given here; listed as Homo sapiens) | 2.958 | 2.154 | 2.238 | 2.368 | 1.429 | 4.22 | −0.4178 | 2.588 | 3.165 | 2.105 | 2.853 | 4.304 | 2.578 | 2.86 | 1.373 | 2.408 | 3.487 | 2.156 | 2.25 | 2.949 | ncRNA array expression, patient 30: −2.886
5 | SEQ ID NO 52 (TTTTCTTAGTCTTTTTACTTTTTCCATTATATTCTTTGATATATTTGAGAAAATGGCTTG; listed as DNA, chemistry not given here; listed as Homo sapiens) | 2.853 | 1.986 | 3.663 | 1.552 | 0.7809 | 0.9779 | 2.426 | 0.8678 | 0.7332 | 0.9835 | −0.5729 | 0.7286 | −0.2277 | −0.706 | −0.4016 | 3.265 | 3.428 | 0.4479 | 2.064 | 1.478 | ncRNA array expression, patient 30: −0.5811
6 | SEQ ID NO 48 (ACTTATATTCAGAGCATGTGGATTGGGACTCTGAAGAACAACTTTATGGTGGACACCTTC; listed as DNA, chemistry not given here; listed as Homo sapiens) | 0.9515 | 3.672 | 3.353 | 0.2362 | −0.1733 | 0.648 | 3.309 | −0.2759 | 2.286 | 3.38 | 1.713 | 1.144 | −0.4681 | −0.4589 | 2.492 | 4.7 | 2.981 | 4.712 | 0.2102 | 0.1927 | ncRNA array expression, patient 30: −0.334
7 | SEQ ID NO 46 (CTATTGGAGTGCATATAAATTCTTGATAGCACCAGTTCTCAAATATGAGGTGTTAAAAAC; listed as DNA, chemistry not given here; listed as Homo sapiens) | 0.198 | 0.6718 | 1.187 | 0.9853 | 0.04368 | 0.7142 | 1.688 | 5.175 | 1.916 | 2.172 | 0.395 | 0.7531 | −0.4275 | 0.6081 | 0.8675 | 1.428 | 2.919 | 1.824 | 1.253 | 2.278 | ncRNA array expression, patient 30: 0.4452
